The values below are quoted from earlier work in patent publication US20210401846A1, “MEDICAMENT, COMPOUND, COMPOSITION AND METHOD FOR TREATING HERPES” (priority 2020, published 2021).

Assay in data set [1]: not given
This is another data set of the same source.

The target of a further data set is T1, aldehyde oxidase (Homo sapiens, UniProt Q06278).
T1 construct: host or cells: endogenous enzyme in vivo
T1 sequence (Q06278 1-1338): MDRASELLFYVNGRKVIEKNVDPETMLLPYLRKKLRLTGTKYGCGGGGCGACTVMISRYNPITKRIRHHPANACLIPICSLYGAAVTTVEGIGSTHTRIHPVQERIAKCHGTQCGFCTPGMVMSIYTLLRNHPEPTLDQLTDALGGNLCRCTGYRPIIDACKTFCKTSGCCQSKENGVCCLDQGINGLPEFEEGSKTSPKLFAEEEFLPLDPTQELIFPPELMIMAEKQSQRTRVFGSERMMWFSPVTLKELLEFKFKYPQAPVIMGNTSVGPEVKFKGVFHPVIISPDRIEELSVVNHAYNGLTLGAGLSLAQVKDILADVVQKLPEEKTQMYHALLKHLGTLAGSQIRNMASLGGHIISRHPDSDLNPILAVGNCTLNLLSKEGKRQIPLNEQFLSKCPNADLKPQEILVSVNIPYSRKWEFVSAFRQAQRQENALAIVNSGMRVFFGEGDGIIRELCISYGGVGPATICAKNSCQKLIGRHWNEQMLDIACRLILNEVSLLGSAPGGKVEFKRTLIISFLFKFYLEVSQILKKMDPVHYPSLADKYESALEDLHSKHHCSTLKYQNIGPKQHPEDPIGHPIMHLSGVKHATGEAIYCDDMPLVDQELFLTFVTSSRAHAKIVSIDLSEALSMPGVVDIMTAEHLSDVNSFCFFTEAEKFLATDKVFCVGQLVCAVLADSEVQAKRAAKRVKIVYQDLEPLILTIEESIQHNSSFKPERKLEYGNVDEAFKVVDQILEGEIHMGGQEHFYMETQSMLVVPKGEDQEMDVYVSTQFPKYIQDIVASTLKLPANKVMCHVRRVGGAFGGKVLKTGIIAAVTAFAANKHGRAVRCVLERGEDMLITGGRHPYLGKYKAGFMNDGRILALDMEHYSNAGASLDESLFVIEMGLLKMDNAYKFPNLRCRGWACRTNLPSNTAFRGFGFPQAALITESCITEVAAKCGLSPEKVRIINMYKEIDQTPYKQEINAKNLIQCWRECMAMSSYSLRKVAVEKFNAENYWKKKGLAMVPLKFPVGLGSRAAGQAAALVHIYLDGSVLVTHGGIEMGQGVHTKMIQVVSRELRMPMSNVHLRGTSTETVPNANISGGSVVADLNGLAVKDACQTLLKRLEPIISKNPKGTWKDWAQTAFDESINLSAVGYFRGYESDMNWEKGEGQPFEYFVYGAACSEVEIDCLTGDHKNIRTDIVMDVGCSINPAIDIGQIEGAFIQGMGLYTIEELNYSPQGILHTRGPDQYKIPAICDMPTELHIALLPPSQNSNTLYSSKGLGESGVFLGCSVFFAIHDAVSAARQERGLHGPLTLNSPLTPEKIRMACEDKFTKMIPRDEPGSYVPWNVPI
The following applies: in vitro inhibitors of aldehyde oxidase.

For data set [2] the following is noted: during therapy.
Another data set has as its system cytochrome P450. To be noted: human liver microsomes.
Assay in data set [3]: not given
The source holds these as a separate data set.

The conditions of data set [4]: for half-life: 17 patients with herpes zoster.
Assay in data set [5]: not given
This is another data set of the same source.

Where [6] appears, read: after single oral 500 mg radiolabeled famciclovir.
[7] abbreviates: single oral 500 mg radiolabeled famciclovir, 3 healthy male volunteers.
Where [8] appears, read: oral administration of radiolabeled valacyclovir.
Where [9] appears, read: oral single dose 500 mg famciclovir, 7 patients with herpes zoster.

Molecules are shown by their SMILES. Read-outs that look alike come from different tables or passages of the source.

In the case of `Nc1ncc2ncn(CCC(CO)CO)c2n1` [6-deoxy penciclovir], under setting [6], the “share of the radioactivity excreted in the urine” value (shortened to “share … in the urine”) was 7%. In addition, the “inactive metabolite, % of the dose in the urine” value (oral administration of famciclovir) was 5%.
On to `Nc1nc2c(ncn2COCCO)c(=O)[nH]1` [Acyclovir], for which the “Excretion: urine, primarily as acyclovir” value in data set [1] (in vivo) is 89%.
Turning to `CN/C(=N/CCSCc1nc[nH]c1C)NC#N` [Cimetidine], the “effects on the formation of penciclovir in vivo” value on aldehyde oxidase is reported as “did not show relevant effects”.
Regarding `CC(=O)OCC(CCn1cnc2cnc(N)nc21)COC(C)=O` [Famciclovir, famciclovir], in data set [2], the “clinically apparent liver injury” value is recorded as “has not been associated with instances of clinically apparent liver injury” and the “serum ALT elevations” value is on record as “low rate of mild-to-moderate serum ALT elevations”. The “role of cytochrome P450 in famciclovir metabolism” value in the data set on cytochrome P450 is on record as “does not play an important role”. Further, the “famciclovir detected in plasma or urine” value (oral administration) was “Little or no”. Further, the “radiolabeled dose collected in urine in the first 6 hours” value (single oral 500 mg radiolabeled famciclovir) is given as “Approximately 60%”. Also, under setting [7], the “administered radioactivity recovered in feces over 72 hours” value is recorded as 27% and the “administered radioactivity recovered in urine over 72 hours” value is reported as 73%.
`CC(C)[C@H](N)C(=O)OCCOCn1cnc2c(=O)[nH]c(N)nc21` [Valacyclovir]: in data set [1] (normal renal function, adults), the Half-life elimination was approximately 0.5 h. Besides, the Bioavailability in data set [1] (once converted to acyclovir) was approximately 55%. Further, in data set [1] (setting [8]), the “label eliminated in the feces (nonabsorbed drug)” value is recorded as 46% and the “radiolabel eliminated in the urine” value is listed as 47%. For the same compound, in data set [1] (valacyclovir), the Absorption result is given as “Rapid”. Also, the “clinically apparent liver injury” value in data set [2] is listed as “rare instances mild, clinically apparent liver injury”.
As a reminder, the half-life is the time needed for the level to fall by half in the phase considered. The term Cmax denotes the maximum level reached in the sampled fluid or tissue. Regarding `Nc1nc2c(ncn2CCC(CO)CO)c(=O)[nH]1` [penciclovir], in data set [3] (capsule formulation of famciclovir administered with food (approx. 910 Kcal, 26% fat)), the Cmax decrease result is reported as “approximately 50%”. The “decrease in Cmax” value in data set [3] (famciclovir 2 hours after a meal vs 2 hours before a meal) is recorded as 18%. In data set [4] (repeated doses), the half-life was 2.7 ± 1.0 h. For the same compound, the half-life in data set [4] (single dose) is 2.8 ± 1.0 h. In addition, the “AUC of penciclovir greater in patients with herpes zoster as compared to healthy volunteers” value in data set [4] (human, in vivo) was “approximately 35%”. In addition, in data set [4] (setting [9]), the “AUC (mean±SD)” value is 12100 ± 1700 ng·h/mL, the highest concentration (Cmax) is 4000 ± 700 ng/mL and the tmax was 0.7 ± 0.2 h. The “dose excreted in the first 6 hours” value (5 mg/kg radiolabeled penciclovir, 1-hour infusion) is 83%. Further, the “administered radioactivity recovered in urine over 24 hours” value (5 mg/kg radiolabeled penciclovir, 1-hour infusion, 3 healthy male volunteers) is “Approximately 94%”. Moreover, where the note is “500 mg famciclovir three times daily for 7 days”, the accumulation of penciclovir result is listed as “no accumulation”. Under “after 5 mg/kg radiolabeled penciclovir infusion”, the “share … in the urine” value was 91%. For the same compound, the “share … in the urine” value under setting [6] is listed as 82%. Besides, the “Penciclovir concentrations vs dose” value (famciclovir 125 mg to 1000 mg single dose) is listed as “increased in proportion to dose”. For the same compound, under “intravenous penciclovir”, the “renal clearance as share of total plasma clearance” value is listed as 74.5±8.8%. In addition, the blood/plasma ratio result in data set [5] was “approximately 1”. Also, the “bound to plasma proteins” value in data set [5] (concentration range 0.1 to 20 mcg/mL) was less than 20%.
Consider `CC(CN1c2ccccc2Sc2ccccc21)N(C)C` (centres unmarked) [promethazine], for which the “effects on the formation of penciclovir in vivo” value at aldehyde oxidase was “did not show relevant effects”.
